Experimental data as given in article PMC6597546, “Identification of a potent benzoxaborole drug candidate for treating cryptosporidiosis” (Nature Communications, 2019).
“And” between values parts separate entries of the source, which are not always exact repeats. Equal entries are not always repeated.

Tested on: C. parvum (Bunch Grass Farms Iowa isolate)
Test: Neonatal calf model of cryptosporidiosis
Assay type: in vivo
Design: key to Oocyst Shedding, individual calves / Oocyst Shedding: C. parvum abundance per gram of fecal dry matter (qPCR); key to Fecal Consistency Score, individual calves / Fecal Consistency Score: score 1 = normal, 3 = severely abnormal
Conditions: for Fecal Consistency Score / Oocyst Shedding: 10 mg/kg every 12 h with delayed start
Description: All calf efficacy studies were performed as previously described. These studies were approved by the University of Vermont Institutional animal Care and Use Committee, and conducted in compliance with the USDA-APHIS “Blue Book”, available at www.aphis.usda.gov/animal-welfare. Holstein bull calves were acquired at birth from Green Mountain Dairy (Sheldon, VT), given synthetic colostrum with 200 g of IgG (Land O’Lakes, Ardent Hills, MO) and bovine coronavirus and Escherichia coli antibodies (First Defense Bolus, Immuncell Corporation, Portland, ME) within 2 h of birth, and transported to UVM. Calves were group-housed initially, and infected at 24–48 h of age during an interruption in bottle feeding by oral administration of ∼5 × 10^7 C. parvum Iowa isolate oocysts (Bunch Grass Farms, Deary, ID) suspended in 10 mL of water. They were then moved to individual raised pens, and observed twice daily at feeding times for clinical signs, which were quantified according to a previously described standardized scoring rubric. Data on fecal consistency, dehydration and overall health were collected, in each case with a score of 1 being normal and 3 being severely abnormal (scoring rubric in Supplementary Table 2). Clinical microbiologic studies for adventitious infectious agents including Salmonella culture, aerobic bacterial culture with E. coli genotyping, rotavirus, and coronavirus testing were performed on all calves at the onset of diarrhea by the Cornell Animal Health Diagnostic Center (Ithaca, NY). Animals with severe diarrhea or other symptoms were supported aggressively, including with administration of oral electrolytes, intravenous fluids and flunixin meglumine (Banamine, Merck) as needed. […] Daily fecal samples were obtained from collections bins located under each pen. Fecal samples used for parasite quantification were dried at 90 °C until stable in weight, and C. parvum abundance per gram of fecal dry matter was measured using qPCR and the primers Cp18s forward and Cp18s reverse.

## CC1(C)OB(O)c2cc(NC(=O)c3ccc(-n4cccn4)cc3Cl)ccc21 [AN7973]
Calf 1, Day 2
  Fecal Consistency Score: 1.67
  Oocyst Shedding: 4028
Calf 1, Day 3
  Fecal Consistency Score: 2
  Oocyst Shedding: 3180923
Calf 1, Day 4
  Fecal Consistency Score: 2.33
  Oocyst Shedding: 4800342
Calf 1, Day 5
  Fecal Consistency Score: 1.5
  Oocyst Shedding: 120115
Calf 1, Day 6
  Fecal Consistency Score: 1
  Oocyst Shedding: 5946
Calf 1, Day 7
  Fecal Consistency Score: 1
  Oocyst Shedding: 4811
Calf 1, Day 8
  Fecal Consistency Score: 1
  Oocyst Shedding: 154
Calf 1, Day 9
  Fecal Consistency Score: 1
  Oocyst Shedding: 1
Calf 1, Day 10
  Fecal Consistency Score: 1
  Oocyst Shedding: 1
Calf 1, Day 11
  Fecal Consistency Score: 1
  Oocyst Shedding: 164
Calf 1, Day 12
  Fecal Consistency Score: 1
  Oocyst Shedding: 1032
Calf 1, Day 13
  Fecal Consistency Score: 1
  Oocyst Shedding: 1
Calf 1, Day 14
  Fecal Consistency Score: 1
  Oocyst Shedding: 1
Calf 2, Day 0
  Fecal Consistency Score: 1
  Oocyst Shedding: 1
Calf 2, Day 1
  Fecal Consistency Score: 3
  Oocyst Shedding: 15983
Calf 2, Day 2
  Fecal Consistency Score: 2
  Oocyst Shedding: 572309
Calf 2, Day 3
  Fecal Consistency Score: 2.67
  Oocyst Shedding: 9928800
Calf 2, Day 4
  Fecal Consistency Score: 3
  Oocyst Shedding: 10753010
Calf 2, Day 5
  Fecal Consistency Score: 2.33
  Oocyst Shedding: 89411
Calf 2, Day 6
  Fecal Consistency Score: 1
  Oocyst Shedding: 36783
Calf 2, Day 7
  Fecal Consistency Score: 1
  Oocyst Shedding: 6676
Calf 2, Day 8
  Fecal Consistency Score: 1
  Oocyst Shedding: 2648
Calf 2, Day 9
  Fecal Consistency Score: 1
  Oocyst Shedding: 2147
Calf 2, Day 10
  Fecal Consistency Score: 1
  Oocyst Shedding: 401
Calf 2, Day 11
  Fecal Consistency Score: 1
  Oocyst Shedding: 10
Calf 2, Day 12
  Fecal Consistency Score: 1
  Oocyst Shedding: 1
Calf 2, Day 13
  Fecal Consistency Score: 1
  Oocyst Shedding: 1
Calf 2, Day 14
  Fecal Consistency Score: 1
  Oocyst Shedding: 1
Calf 3, Day 0
  Fecal Consistency Score: 1
  Oocyst Shedding: 1
Calf 3, Day 1
  Fecal Consistency Score: 3
  Oocyst Shedding: 4675
Calf 3, Day 2
  Fecal Consistency Score: 2.33
  Oocyst Shedding: 376713
Calf 3, Day 3
  Fecal Consistency Score: 2.5
  Oocyst Shedding: 3074178
Calf 3, Day 4
  Fecal Consistency Score: 3
  Oocyst Shedding: 1097033
Calf 3, Day 5
  Fecal Consistency Score: 2.33
  Oocyst Shedding: 172967
Calf 3, Day 6
  Fecal Consistency Score: 1.5
  Oocyst Shedding: 10727
Calf 3, Day 7
  Fecal Consistency Score: 1
  Oocyst Shedding: 1
Calf 3, Day 8
  Fecal Consistency Score: 1
  Oocyst Shedding: 363
Calf 3, Day 9
  Fecal Consistency Score: 1
  Oocyst Shedding: 1134
Calf 3, Day 10
  Fecal Consistency Score: 1
  Oocyst Shedding: 624
Calf 3, Day 11
  Fecal Consistency Score: 1
  Oocyst Shedding: 1
Calf 3, Day 12
  Fecal Consistency Score: 1
  Oocyst Shedding: 1
Calf 3, Day 13
  Fecal Consistency Score: 1
  Oocyst Shedding: 28
Calf 3, Day 14
  Fecal Consistency Score: 1
  Oocyst Shedding: 1
10 mg/kg every 24 h on days 2–8, Day 0
  Oocyst Shedding, individual calves: 100 and 331 and 774
10 mg/kg every 24 h on days 2–8, Day 1
  Oocyst Shedding, individual calves: 6698 and 100 (2×)
10 mg/kg every 24 h on days 2–8, Day 3
  Oocyst Shedding, individual calves: 644594 and 196913 and 724661
10 mg/kg every 24 h on days 2–8, Day 4
  Oocyst Shedding, individual calves: 119580 and 31776 and 1355
10 mg/kg every 24 h on days 2–8, Day 5
  Oocyst Shedding, individual calves: 573 and 17468 and 8981
10 mg/kg every 24 h on days 2–8, Day 7
  Oocyst Shedding, individual calves: 67293 and 6611 and 7598
10 mg/kg every 24 h on days 2–8, Day 9
  Oocyst Shedding, individual calves: 54864 and 100 and 1163
10 mg/kg every 24 h on days 2–8, Day 10
  Oocyst Shedding, individual calves: 139951 and 100 and 1010
bovine, in vivo
  reduction of total burden of fecal C. parvum shedding (AUC): over 90%
First three days of treatment
  reduction of fecal C. parvum shedding rate: nearly five logs
Scale 1 normal to 3 severely abnormal, 5 mg/kg every 12 h on days 2–8, Day 0
  Fecal Consistency Score, individual calves: 1
Scale 1–3, 5 mg/kg every 12 h on days 2–8, Day 1
  Fecal Consistency Score, individual calves: 1
Scale 1–3, 5 mg/kg every 12 h on days 2–8, Day 2
  Fecal Consistency Score, individual calves: 1
Scale 1–3, 5 mg/kg every 12 h on days 2–8, Day 3
  Fecal Consistency Score, individual calves: 1
Scale 1–3, 5 mg/kg every 12 h on days 2–8, Day 4
  Fecal Consistency Score, individual calves: 1
Scale 1–3, 5 mg/kg every 12 h on days 2–8, Day 5
  Fecal Consistency Score, individual calves: 1
Scale 1–3, 5 mg/kg every 12 h on days 2–8, Day 6
  Fecal Consistency Score, individual calves: 1
Scale 1–3, 5 mg/kg every 12 h on days 2–8, Day 7
  Fecal Consistency Score, individual calves: 1
Scale 1–3, 5 mg/kg every 12 h on days 2–8, Day 8
  Fecal Consistency Score, individual calves: 1
Scale 1–3, 5 mg/kg every 12 h on days 2–8, Day 9
  Fecal Consistency Score, individual calves: 1
Scale 1–3, 5 mg/kg every 12 h on days 2–8, Day 10
  Fecal Consistency Score, individual calves: 1
Scale 1–3, 10 mg/kg every 24 h on days 2–8, Day 0
  Fecal Consistency Score, individual calves: 1
Scale 1–3, 10 mg/kg every 24 h on days 2–8, Day 1
  Fecal Consistency Score, individual calves: 1
Scale 1–3, 10 mg/kg every 24 h on days 2–8, Day 2, 10 mg/kg
  Fecal Consistency Score, individual calves: 1.33 (2×) and 2.67
Scale 1–3, 10 mg/kg every 24 h on days 2–8, Day 3, 10 mg/kg
  Fecal Consistency Score, individual calves: 2 (2×) and 2.33
Scale 1–3, 10 mg/kg every 24 h on days 2–8, Day 4, 10 mg/kg
  Fecal Consistency Score, individual calves: 2.33 and 1.33 (2×)
Scale 1–3, 10 mg/kg every 24 h on days 2–8, Day 5
  Fecal Consistency Score, individual calves: 1
Scale 1–3, 10 mg/kg every 24 h on days 2–8, Day 6
  Fecal Consistency Score, individual calves: 1
Scale 1–3, 10 mg/kg every 24 h on days 2–8, Day 7
  Fecal Consistency Score, individual calves: 1
Scale 1–3, 10 mg/kg every 24 h on days 2–8, Day 8
  Fecal Consistency Score, individual calves: 1
Scale 1–3, 10 mg/kg every 24 h on days 2–8, Day 9
  Fecal Consistency Score, individual calves: 1
Scale 1–3, 10 mg/kg every 24 h on days 2–8, Day 10
  Fecal Consistency Score, individual calves: 1
Several of the treatment regimens
  effect on dehydration: significantly reduced the overall severity of dehydration
Twice daily assessment of alertness, interaction, appetite
  tolerability in calves: tolerated AN7973 well
